Results taken from ChEMBL document CHEMBL5620426, “Discovery of 3-(1H-benzo[d]imidazole-2-yl)-1H-pyrazol-4 -amine derivatives as novel and potent syk inhibitors for the treatment of hematological malignancies” (Eur J Med Chem, 2023).

Tests used:
[1] = molecular target: T1, Tyrosine-protein kinase SYK (Homo sapiens, UniProt P43405); experiment: Inhibition of Syk (unknown origin) preincubated for 20 mins followed by 33P-gamma-ATP measured after 120 mins by HotSpot assay
[2] = molecular target: T1, Tyrosine-protein kinase SYK; experiment: Inhibition of Syk (unknown origin) assessed as enzyme activity at 2 uM preincubated for 20 mins followed by 33P-gamma-ATP measured after 120 mins by HotSpot assay relative to control; set-up: scale not given: the % may be the effect or the level left; details: time 140.0 min
[3] = tested on: Ramos; experiment: Inhibition of […] in serum-starved human Ramos cells incubated for 1 hr followed by anti-human IgM F(ab)2 measured after 5 mins; format: functional, cell-based
[4] = Metabolic stability in human liver microsomes assessed as intrinsic clearance at […] incubated for 60 mins in presence of NADPH by LC-MS/MS analysis; format: ADME, Microsome; details: read-out: CLH
[5] = Metabolic stability in human liver microsomes assessed as half life at […] incubated for 60 mins in presence of NADPH by LC-MS/MS analysis; format: ADME, Microsome
[6] = tested on: MV4-11; experiment: Inhibition of cell viability in human MV4-11 cells incubated for 72 hrs by Cell Titer Glo assay; format: functional, cell-based; details: MV4-11, 72 h
[7] = Volume of distribution at steady state in fasted Sprague-Dawley rat at 1 mg/kg, iv measured for 24 hrs by LC-MS/MS analysis; format: ADME, organism-based; details: in vivo, read-out: Vdss
[8] = Half life in fasted Sprague-Dawley rat at 1 mg/kg, iv measured for 24 hrs by LC-MS/MS analysis; format: ADME, organism-based; details: in vivo
[9] = Clearance in fasted Sprague-Dawley rat at 1 mg/kg, iv measured for 24 hrs by LC-MS/MS analysis; format: ADME, organism-based; details: in vivo
[10] = C0 in fasted Sprague-Dawley rat at 1 mg/kg, iv measured for 24 hrs by LC-MS/MS analysis; format: ADME, organism-based; details: in vivo
[11] = AUC in fasted Sprague-Dawley rat at 1 mg/kg, iv measured for 24 hrs by LC-MS/MS analysis; format: ADME, organism-based; details: in vivo

Structure (SMILES)	IC50 [1]	IC50 [3]	microsomal CLint [4]	half-life [5]	IC50 [6]	other results
COC(=O)c1cc(Nc2c[nH]nc2-c2nc3ccccc3[nH]2)nc(Cl)n1	321 nM	–	–	–	–	–
Cc1cc2nc(-c3n[nH]cc3Nc3ncnc4sccc34)[nH]c2cc1C	77.6 nM	–	–	–	–	–
c1ccc2[nH]c(-c3n[nH]cc3Nc3ccnc(NC4CCCC4)n3)nc2c1	–	–	–	–	–	Activity [2]: 36.3%
Cc1cccc2[nH]c(-c3n[nH]cc3Nc3ncnc4[nH]ccc34)nc12	5.6 nM	39.2 nM	14.2 µL/min/mg	1.63 h	11 nM	–
COc1ccc2[nH]c(-c3n[nH]cc3Nc3ncnc4[nH]ccc34)nc2c1	4.9 nM	41.5 nM	79.9 µL/min/mg	0.288 h	10.8 nM	–
c1ccc2[nH]c(-c3n[nH]cc3Nc3ncnc4c3CCC4)nc2c1	–	–	–	–	–	Activity [2]: 18.5%
Nc1nccc(Nc2c[nH]nc2-c2nc3ccccc3s2)n1	163 nM	–	–	–	–	–
Nc1nccc(Nc2c[nH]nc2-c2nc3ccccc3[nH]2)n1	60.1 nM	–	–	–	–	–
c1nc(Nc2c[nH]nc2-c2nc3cc(N4CCCCC4)ccc3[nH]2)c2cc[nH]c2n1	5.9 nM	184 nM	–	–	66.4 nM	–
Cc1cc2nc(-c3n[nH]cc3Nc3ccnc4[nH]ccc34)[nH]c2cc1C	28.2 nM	–	–	–	–	–
c1ccc2[nH]c(-c3n[nH]cc3Nc3ncnc4[nH]ccc34)nc2c1	20.5 nM	–	–	–	–	–
CC(C)(C)c1ccc2[nH]c(-c3n[nH]cc3Nc3ncnc4[nH]ccc34)nc2c1	67.4 nM	–	–	–	–	–
CN1CCN(c2ccc3[nH]c(-c4n[nH]cc4Nc4ncnc5[nH]ccc45)nc3c2)CC1	1.6 nM	49.5 nM	13.2 µL/min/mg	1.75 h	7.9 nM	Vd [7]: 6.99 L/kg; half-life [8]: 2.47 h; clearance [9]: 51.7 mL/min/kg; C0 at 24 h [10]: 763 ng/mL; AUC at 24 h [11]: 332 ng·h/mL
c1nc(Nc2c[nH]nc2-c2nc3cc(OCCN4CCOCC4)ccc3[nH]2)c2cc[nH]c2n1	1.1 nM	30.7 nM	63.9 µL/min/mg	0.453 h	12.4 nM	–
c1ccc2[nH]c(-c3n[nH]cc3NC3CCNCC3)nc2c1	–	–	–	–	–	Activity [2]: 82.7%
CCN(CC)c1ccc2[nH]c(-c3n[nH]cc3Nc3ncnc4[nH]ccc34)nc2c1	8.6 nM	78.5 nM	75.1 µL/min/mg	0.308 h	36.1 nM	–
Clc1ccc2[nH]c(-c3n[nH]cc3Nc3ncnc4[nH]ccc34)nc2c1	172 nM	–	–	–	–	–
Nc1cc(Nc2c[nH]nc2-c2nc3ccccc3[nH]2)ncn1	135 nM	–	–	–	–	–
Cn1c(-c2n[nH]cc2Nc2ccnc(N)n2)nc2ccccc21	–	–	–	–	–	Activity [2]: 92.3%
Cc1nc(Nc2c[nH]nc2-c2nc3cc(C)c(C)cc3[nH]2)c2cc[nH]c2n1	154 nM	–	–	–	–	–
c1ccc(Nc2nccc(Nc3c[nH]nc3-c3nc4ccccc4[nH]3)n2)cc1	687 nM	–	–	–	–	–
COc1cccc2[nH]c(-c3n[nH]cc3Nc3ncnc4[nH]ccc34)nc12	8.4 nM	29.8 nM	14.3 µL/min/mg	1.62 h	3.3 nM	–
C[C@@H]1CN(c2ccc3[nH]c(-c4n[nH]cc4Nc4ncnc5[nH]ccc45)nc3c2)C[C@H](C)O1	3 nM	46.8 nM	16.4 µL/min/mg	1.41 h	4.9 nM	–
